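Following 48 hours of exposure in 96-well plates, responses at five concentrations were used to interpolate endpoints linearly. Definition used: TGI = concentration required for complete inhibition of growth.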 Where a SMILES comes first, the peptide text is derived from it. The star is where a group is joined. Boc = CC(C)(C)OC(=O)*
How the values were obtained:
Test in all cases: DTP human tumour cell line panel, 48 h
[1] = test system: 786-0 renal
[2] = test system: A549 NSCLC
[3] = test system: BT-549 breast
[4] = test system: HCC-2998 colon
[5] = test system: HCT-116 colon
[6] = test system: HCT-15 colon
[7] = test system: K-562 leukemia
[8] = test system: M14 melanoma
[9] = test system: MALME-3M melanoma
[10] = test system: MDA-MB-231 breast
[11] = test system: MDA-MB-435
[12] = test system: PC-3 prostate
[13] = test system: RXF 393 renal
[14] = test system: SF-539 CNS
[15] = test system: SW-620 colon
[16] = test system: TK-10 renal
[17] = test system: UACC-62 melanoma
[18] = test system: UO-31 renal
[19] = test system: OVCAR-8 ovarian
[20] = test system: NCI/ADR-RES ovarian

| SMILES | TGI [1] [µM] | TGI [2] [µM] | TGI [3] [µM] | TGI [4] [µM] | TGI [5] [µM] | TGI [6] [µM] | TGI [7] [µM] | TGI [8] [µM] | TGI [9] [µM] | TGI [10] [µM] | TGI [11] [µM] | TGI [12] [µM] | TGI [13] [µM] | TGI [14] [µM] | TGI [15] [µM] | TGI [16] [µM] | TGI [17] [µM] | TGI [18] [µM] | TGI [19] [µM] | TGI [20] [µM] |
| --- | --- | --- | --- | --- | --- | --- | --- | --- | --- | --- | --- | --- | --- | --- | --- | --- | --- | --- | --- | --- |
| CSC1=C(C#N)C(=O)N(c2ccc(Cl)cc2)C(=O)C1C#N (stereo not drawn) | > 100 | > 100 | > 100 | > 100 | > 100 | > 100 | > 100 | > 100 | > 100 | > 100 | > 100 | > 100 | > 100 | > 100 | > 100 | > 100 | > 100 | > 100 |  |  |
| Cc1ccc(/C=C/C(=O)C(C)C)cc1 | > 100 | > 100 |  | > 100 |  |  | > 100 | > 100 |  |  |  |  | > 100 |  | > 100 | > 100 | > 100 | > 100 | > 100 |  |
| Cc1nc2nn(Cc3ccccc3)cc2c(=O)o1 | > 100 | > 100 |  | > 100 | > 100 | > 100 | > 100 |  | > 100 |  |  |  | > 100 | > 100 | > 100 | > 100 | > 100 | > 100 | > 100 |  |
| Nc1ccc(C(=O)NN2C(=O)C(Cl)C2c2cc(Br)cc(Br)c2O)cc1 (stereo not drawn) | > 100 | 91.1 |  | > 100 | > 100 | > 100 |  | 28.2 | 97.9 |  |  |  | 79.8 | 57 | > 100 | > 100 | 24.8 | 22.4 | > 100 |  |
| CC(OC1CC(=O)CC2C(=O)C=CC(=O)C12)c1ccccc1 (stereo not drawn) | 26.9 | 40.2 |  | 29.7 | 22.4 | 31.4 | > 100 | 33.3 | 34.9 |  |  |  | 35.8 | 34.5 | 27.3 | 31.6 | 29.7 | 29.5 | 33.2 |  |
| COC(=O)C(Cc1c[nH]c2ccccc12)NC(=O)C(Cc1c[nH]c2ccccc12)NC(=O)C(Cc1c[nH]c2ccccc12)NC(=O)OC(C)(C)C (stereo not drawn) (Boc-Trp-Trp-Trp-OMe; configuration not given here) | 31.7 | > 100 | 33.8 | 32.9 | 29.8 | 41.4 | > 100 | > 100 | > 100 | 93.1 |  | 30 | 21 |  | 40.7 | 46.7 | 38.3 | > 100 | 38.8 |  |
| CC(C)(O)/C=C\P(C)(=O)c1ccccc1 (stereo not drawn) | > 100 | > 100 |  | > 100 | > 100 | > 100 | > 100 | > 100 | > 100 |  | > 100 | > 100 | > 100 | > 100 | > 100 | > 100 | > 100 |  | > 100 | > 100 |
| CC(C)c1cccc(C(C)C)c1NC(=O)C(=O)CC(=O)CC(c1ccccc1)c1c(O)c2ccccc2oc1=O (stereo not drawn) | > 100 | > 100 |  | > 100 | > 100 |  | > 100 | > 100 | > 100 |  |  |  | > 100 | > 100 | > 100 | > 100 | > 100 | > 100 | > 100 |  |
| OC1CSCCCSCCSCCCSC1 | > 100 | > 100 | > 100 | > 100 | > 100 | > 100 | > 100 | > 100 |  | > 100 | > 100 | > 100 | > 100 | > 100 | > 100 | > 100 | > 100 | > 100 | > 100 |  |
| COc1cc2c(cc1OC)C(=O)Cc1ccc3c(c1CNCC2)OCO3 | > 100 | > 100 |  | > 100 | > 100 | > 100 | > 100 | > 100 | > 100 |  |  |  |  | > 100 | > 100 | > 100 | > 100 | > 100 | > 100 |  |
| O=[N+]([O-])c1cc2c(cc1O)[nH]c1cccc([N+](=O)[O-])c12 | > 100 | > 100 |  | > 100 | > 100 | > 100 | > 100 | > 100 | > 100 |  |  |  |  | > 100 | > 100 | > 100 |  | > 100 | > 100 |  |
| NC(N)=NCc1ccc2c(c1)OCO2 | > 100 | > 100 |  | > 100 | > 100 | > 100 | > 100 | > 100 | > 100 | > 100 | > 100 | > 100 | > 100 | > 100 | > 100 | > 100 | > 100 | > 100 |  | > 100 |
| CN/C=C(/c1ccc(OC)cc1)C(O)c1ccc(OC)c(OC)c1 (stereo not drawn) | > 100 | > 100 |  | > 100 | > 100 | > 100 | > 100 | > 100 | > 100 |  |  |  | > 100 | > 100 | > 100 | > 100 | > 100 | > 100 | > 100 |  |
| COc1cc2c(cc1O)[C@H](C)C(c1ccccc1OC)O2 (stereo partly drawn) | 50.5 | > 100 |  | 90 | 15.4 | 12.1 | > 100 | > 100 | > 100 |  |  |  | 93.6 | 41.5 | 12.2 | > 100 | > 100 | 70.2 | 57.8 |  |
